Paper PMC9003190, “MeNINV1: An Alkaline/Neutral Invertase Gene of Manihot esculenta, Enhanced Sucrose Catabolism and Promoted Plant Vegetative Growth in Transgenic Arabidopsis” (Plants, 2022)

B1: MeNINV1 (Manihot esculenta) (protein)
chain: MNTSSCIVISTVKPCCRILIGYTSSSLFGISPQKFNNRVIHNNLSKSLPKSSHHRRFHCHSVNNRSRIIGNKSVVHSNSRAFNVSDSSWDQSKVLTPSFHVNRGRGRGVLVIPKVSSDFRNHSTSVESHINEKGFENIYIQGGLNVKPLVIKKIETGNNVVEEEDKSSRIEINGTSVNIDYLKGLNETAPKVEREVSDIEKEAWKLLQGAVVNYCGNPVGTVAANDPADKQPLNYDQVFIRDFVPSALAFLLNGEVEIVKNFLLYTLQLQSWEKTVDCYSPGQGLMPASFKVRTAPLDGSDGAFEEVLDPDFGESAIGRVAPVDSGLWWIILLRAYGRITGDYALQERIDVQTGIRLILNLCLSDGFDMFPTLLVTDGSCMIDRRMGIHGHPLEIQALFYAALRCAREMLIVNDGTKNLVAAVNSRLSALSFHIREYYWVDMKKINEIYRYKTEECSTDAVNKFNIYPDQIPSWLVDWIPEEGGYLIGNLQPAHMDFRFFTLGNLWAIISSLGTVKQNEGILNLIESKWDDLVAHMPLKICYPALEHEEWRIITGSDPKNTPRSYHNGGSWPTLLWQFTLACIKMGRPELAQRAVSLAEKRLSLDQWPEYYDTRSGRFIGKQSRLFQTWTIAGFLASKKLLENPDKASLLFWDEDYDLLETCVCALSKTSRKKCSRFASRSQKQA
notes: full-length ORF in pDR195, expressed in invertase-deficient yeast SEY2102; crude enzyme supernatant, empty-vector control

What was measured:
MeNINV1 = target: T1, MeNINV1 (Manihot esculenta, UniProt G5DC09); assay: DNS reducing sugar assay, crude yeast extract; type: biochemical; settings: product inhibition of sucrose hydrolysis; pH 6.5
T1 construct: gene NINV1; full-length ORF in pDR195, expressed in invertase-deficient yeast SEY2102; crude enzyme supernatant, empty-vector control
T1 sequence (G5DC09 1-685): B1 chain

[1] = substrate: OC[C@H]1O[C@@](CO)(O[C@H]2O[C@H](CO)[C@@H](O)[C@H](O)[C@H]2O)[C@@H](O)[C@@H]1O; assay: DNS reducing sugar assay, crude yeast extract; type: biochemical, Manihot esculenta; settings: pH 6.5, optimum temperature 40 °C

Row | Molecule | DNS reducing sugar assay, crude yeast extract (MeNINV1) | Km [1]
1 | OCC1(O)OC[C@@H](O)[C@@H](O)[C@@H]1O (some centres unmarked) [fructose] | The addition of fructose, a decomposition product of sucrose, to the reaction solution inhibited | 
2 | B1 |  | 10.59 mM
